Reference: paper PMC10609143, “Inhibitory Mechanisms of Lekethromycin in Dog Liver Cytochrome P450 Enzymes Based on UPLC-MS/MS Cocktail Method” (Molecules, 2023)
pIC50, pKi: −log10 of the molar value.

Key:
Assay type in all cases: in vitro ADME
[1] = CYP450 inhibition study of LKMS in dog liver microsomes, testosterone 6β-hydroxylation; details: probe at Km, 15 min, 0.2 mg/mL protein, n = 3
Method: (§1) All experiments were performed in triplicate.
(§2) Inhibition assessment of CYP450 isoforms in DLM was performed with a fixed concentration of model probe substrates and a series of concentrations of LKMS ranging from 0 to 80 μM. The concentration of probe substrates was at a concentration of Km in this study. […] Mode inhibition was examined based on a primary Lineweaver–Burk plot and a secondary plot.
(§3) The IC50 values and enzyme kinetic parameters were determined by plotting relative activities over the logarithm of the concentration of LKMS using GraphPad (v.8.0.2, CA, USA). The mode of the inhibitor was analyzed using a Lineweaver–Burk plot and a secondary plot for inhibition constant (Ki and αKi) values. All experimental data are shown as mean ± standard deviation (SD).

[2] = test system: CYP2C9; test: CYP450 inhibition study of LKMS in dog liver microsomes, tolbutamide 4-hydroxylation; details: probe at Km, 15 min, 0.2 mg/mL protein, n = 3
Method: as §1, §2, §3

[3] = molecular target: T1, CYP1A2 (Canis lupus familiaris, UniProt P56592); test: CYP450 inhibition study of LKMS in dog liver microsomes (cocktail, UPLC-MS/MS), phenacetin O-deethylation; details: probe at Km, 15 min, 0.2 mg/mL protein, n = 3
T1 construct: from tissue; host or cells: dog liver microsomes (DLM)
T1 sequence (P56592 1-512): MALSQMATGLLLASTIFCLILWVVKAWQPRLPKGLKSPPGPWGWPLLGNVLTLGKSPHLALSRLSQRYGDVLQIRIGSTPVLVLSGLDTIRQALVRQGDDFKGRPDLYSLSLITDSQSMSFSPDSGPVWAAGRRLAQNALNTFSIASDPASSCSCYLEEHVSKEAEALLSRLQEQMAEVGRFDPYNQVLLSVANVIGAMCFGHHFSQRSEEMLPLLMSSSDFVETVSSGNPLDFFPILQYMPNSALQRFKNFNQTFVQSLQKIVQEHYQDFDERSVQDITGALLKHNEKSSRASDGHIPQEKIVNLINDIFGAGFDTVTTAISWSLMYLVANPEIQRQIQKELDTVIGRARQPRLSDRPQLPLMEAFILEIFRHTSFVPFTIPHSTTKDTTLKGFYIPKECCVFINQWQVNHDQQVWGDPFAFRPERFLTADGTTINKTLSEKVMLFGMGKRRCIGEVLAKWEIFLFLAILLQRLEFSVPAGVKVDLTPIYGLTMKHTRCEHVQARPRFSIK
Method: as §1, §2, §3

[4] = molecular target: T2, CYP2B6 (Canis lupus familiaris, UniProt P24460); test: CYP450 inhibition study of LKMS in dog liver microsomes, bupropion hydroxylation
T2 construct: from tissue; host or cells: dog liver microsomes (DLM)
T2 sequence (P24460 1-494): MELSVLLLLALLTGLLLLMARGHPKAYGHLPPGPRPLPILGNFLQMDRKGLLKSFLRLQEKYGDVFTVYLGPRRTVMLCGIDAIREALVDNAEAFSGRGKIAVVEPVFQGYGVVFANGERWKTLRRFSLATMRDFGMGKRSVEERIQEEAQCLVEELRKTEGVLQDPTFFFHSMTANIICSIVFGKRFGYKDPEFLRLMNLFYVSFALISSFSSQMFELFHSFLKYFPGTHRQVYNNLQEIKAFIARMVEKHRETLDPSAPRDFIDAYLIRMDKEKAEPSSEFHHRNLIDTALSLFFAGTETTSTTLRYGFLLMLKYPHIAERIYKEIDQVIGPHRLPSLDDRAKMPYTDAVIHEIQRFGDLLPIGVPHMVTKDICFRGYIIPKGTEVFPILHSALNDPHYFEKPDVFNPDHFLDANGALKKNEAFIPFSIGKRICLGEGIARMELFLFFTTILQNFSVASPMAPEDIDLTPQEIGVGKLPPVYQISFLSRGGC
Method: as §1, §2, §3

[5] = molecular target: T3, CYP2E1 (Canis lupus familiaris, UniProt Q9MZY0); test: CYP450 inhibition study of LKMS in dog liver microsomes, chlorzoxazone hydroxylation; details: probe at Km, 15 min, 0.2 mg/mL protein, n = 3
T3 construct: from tissue; host or cells: dog liver microsomes (DLM)
T3 sequence (Q9MZY0 whole entry): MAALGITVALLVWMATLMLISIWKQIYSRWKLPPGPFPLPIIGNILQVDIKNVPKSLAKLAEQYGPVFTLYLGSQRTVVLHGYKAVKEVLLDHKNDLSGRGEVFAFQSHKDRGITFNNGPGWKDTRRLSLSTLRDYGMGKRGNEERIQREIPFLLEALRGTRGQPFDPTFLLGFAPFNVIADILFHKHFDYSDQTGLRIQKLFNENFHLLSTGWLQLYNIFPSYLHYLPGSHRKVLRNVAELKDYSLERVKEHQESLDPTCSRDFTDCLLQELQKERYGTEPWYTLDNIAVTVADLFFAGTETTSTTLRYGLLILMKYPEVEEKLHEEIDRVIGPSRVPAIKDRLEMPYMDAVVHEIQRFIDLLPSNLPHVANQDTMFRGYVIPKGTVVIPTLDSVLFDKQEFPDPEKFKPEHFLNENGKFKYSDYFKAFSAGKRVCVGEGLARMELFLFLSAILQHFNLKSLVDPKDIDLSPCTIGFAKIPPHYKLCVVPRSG
Method: as §1, §2, §3

[6] = test system: CYP450 enzymes in dog liver microsomes; test: Chemical inhibition experiments: LKMS disappearance rate with selective CYP450 inhibitors; details: n = 3
Method: The effect of selective inhibitors on the rate of LKMS disappearance was investigated to identify the metabolizing enzymes of LKMS. The total volume of the incubation system was 200 μL, which contained the tested compound, inhibitors, PBS (pH = 7.4), LKMS, and NADPH. The study was performed via incubation with different inhibitors of CYP450 as follows: α-naphthoflavone (CYP1A2, 2 μM), pilocarpine (CYP2A6, 8 μM), Thio-TEPA (CYP2B6, 6 μM), sulfaphenazole (CYP2C9, 6 μM), quinidine (CYP2D6, 8 μM), sodium diethyldithiocarbamate (CYP2E1, 20 μM), and ketoconazole (CYP3A4, 2 μM). The sample incubated without inhibitors was used as a negative control. The sample was incubated with dimethyl sulfoxide (DMSO) (25%) as a positive control in this study. Following this pilot, confirmatory experiments were conducted by incubating with DLM in the presence of specific CYP450 inhibitors.

[7] = test system: CYP2A6; test: CYP450 inhibition study of LKMS in dog liver microsomes, coumarin hydroxylation
Method: as §1, §2, §3

[8] = molecular target: T4, CYP2D6 (Canis lupus familiaris, UniProt Q29473); test: CYP450 inhibition study of LKMS in dog liver microsomes, dextromethorphan O-demethylation
T4 construct: from tissue; host or cells: dog liver microsomes (DLM)
T4 sequence (Q29473 1-500): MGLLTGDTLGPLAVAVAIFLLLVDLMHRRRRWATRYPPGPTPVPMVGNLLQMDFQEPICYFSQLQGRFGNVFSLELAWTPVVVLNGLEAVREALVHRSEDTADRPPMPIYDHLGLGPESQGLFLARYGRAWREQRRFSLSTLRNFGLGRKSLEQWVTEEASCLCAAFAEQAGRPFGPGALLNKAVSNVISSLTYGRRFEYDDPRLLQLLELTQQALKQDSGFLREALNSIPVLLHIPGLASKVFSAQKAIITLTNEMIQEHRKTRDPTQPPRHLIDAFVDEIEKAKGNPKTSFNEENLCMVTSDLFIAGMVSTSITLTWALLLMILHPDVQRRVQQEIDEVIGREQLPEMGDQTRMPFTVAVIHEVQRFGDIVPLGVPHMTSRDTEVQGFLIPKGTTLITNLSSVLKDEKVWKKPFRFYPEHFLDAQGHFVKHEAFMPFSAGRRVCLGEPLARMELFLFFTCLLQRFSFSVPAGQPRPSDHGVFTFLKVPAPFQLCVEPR
Method: as §1, §2, §3

Q: With Lekethromycin [LKMS] as the substance, how does the pIC50 [1] read?
A: < 3.70

Q: What about the pIC50 [2] of the same substance?
A: < 3.70

Q: And the pIC50 [3]?
A: < 3.70

Q: And the Mode of inhibition ([4]; CYP2B6, Lineweaver-Burk plots)?
A: mixed way

Q: And the pKi ([4]; CYP2B6, dog liver microsomes, Lineweaver-Burk and secondary (slope) plot, n = 2, read-out: Ki (inhibition constant))?
A: 4.23

Q: And the “αKi (alpha inhibition constant)” value ([4]; CYP2B6, dog liver microsomes, secondary (intercept) plot, n = 2)?
A: 12.07 µM

Q: And the pIC50 [5]?
A: < 3.70

Q: What about the “Decrease of biotransformation rate of LKMS” value (“Decrease” for short) ([6]; CYP1A2 inhibitor α-naphthoflavone 2 μM) of the same substance?
A: about 50%

Q: And the “Decrease” value ([6]; CYP2A6 inhibitor pilocarpine 8 μM)?
A: about 50%

Q: And the “Decrease” value ([6]; CYP2B6 inhibitor Thio-TEPA 6 μM)?
A: about 50%

Q: What about the “Decrease” value ([6]; CYP2C9 inhibitor sulfaphenazole 6 μM) of the same substance?
A: about 50%

Q: And the “Decrease” value ([6]; CYP2E1 inhibitor sodium diethyldithiocarbamate 20 μM)?
A: about 50%

Q: And the Mode of inhibition ([7]; CYP2A6, Lineweaver-Burk plots)?
A: mixed-type inhibition

Q: What about the pKi ([7]; CYP2A6, dog liver microsomes, Lineweaver-Burk and secondary (slope) plot, n = 2, read-out: Ki (inhibition constant)) of the same substance?
A: 3.87

Q: And the “αKi (alpha inhibition constant)” value ([7]; CYP2A6, dog liver microsomes, secondary (intercept) plot, n = 2)?
A: 227.6 µM

Q: And the pIC50 ([7]; dog liver microsomes, coumarin hydroxylation, probe at Km, 15 min, 0.2 mg/mL protein, n = 3)?
A: 4.20

Q: What about the Mode of inhibition ([8]; CYP2D6, Lineweaver-Burk plots) of the same substance?
A: mixed way

Q: And the pKi ([8]; CYP2D6, dog liver microsomes, Lineweaver-Burk and secondary (slope) plot, n = 2, read-out: Ki (inhibition constant))?
A: 4.19

Q: And the “αKi (alpha inhibition constant)” value ([8]; CYP2D6, dog liver microsomes, secondary (intercept) plot, n = 2)?
A: 279.6 µM

Q: What about the pIC50 ([8]; dog liver microsomes, dextromethorphan O-demethylation, probe at Km, 15 min, 0.2 mg/mL protein, n = 3) of the same substance?
A: 4.40
